Assay results taken from patent US5441968A, “Therapeutically active fluoro substituted benzimidazoles” (priority 1993, dated 1995).

Assays:
[1] = Chemical stability in aqueous buffer solution at different pH values; format: physicochemical; conditions: for Chemical stability at pH2 t 10%: pH 2, 37° C., time after which 10% has decomposed
Method: The chemical stability of the compounds of the invention has been followed kinetically at low concentration at 37° C. in aqueous buffer solution at different pH values. The results in Table 3 show the half life (t 1/2) at pH 7, that is the time period after which half the amount of the original compound remains unchanged, and t10% at pH 2, that is the time period after which 10% of the original compound has decomposed.

[2] = tested on: gastric acid secretion; assay: Inhibition of gastric acid secretion in the conscious dog; format: in vivo, dog (Harrier); conditions: for Inhibition of acid secretion: id
Method: The potency for inhibition of acid secretion is measured in the male rat and the dog, both intravenously and intraduodenally. When it comes to relevance of the animal test data for potency of a given compound in man for the present type of compounds, it is believed that potency in man will correspond to a level somewhere between what is measured in the male rat and what is measured in the dog.
Inhibition of Gastric Acid Secretion and Bioavailability in the Conscious Dog
Harrier dogs of either sex were used. They were equipped with a duodenal fistula for the administration of test compounds or vehicle and a cannulated ventricular fistula for the collection of gastric secretions.
Before secretory tests the animals were fasted for about 18 h but water was freely allowed. Gastric acid secretion was stimulated by a 4 h infusion of histamine dihydrochloride (12 ml/h) at a dose producing about 80% of the individual maximal secretory response, and gastric juice collected in consecutive 30-min fractions. Test substance or vehicle was given id or iv 1 h after starting the histamine infusion, in a volume of 0.5 ml/kg body weight. The acidity of the gastric juice samples were determined by titration to pH 7.0, and the acid output calculated. The acid output in the collection periods after administration of test substance or vehicle were expressed as fractional responses, setting the acid output in the fraction preceding administration to 1.0. Percentage inhibition was calculated from fractional responses elicited by test compound and vehicle. ED50 values were obtained by graphical interpolation on log dose-response curves, or estimated from single-dose experiments under the assumption of the same slope of the dose-response curve for all test compounds. All results reported are based on acid output 2 h after dosing.

Chemical stability at pH2 t 10% [1]	half-life ([1]; pH 7, 37° C., read-out: Chemical stability at pH 7 t1/2 (converted))	SMILES	ED50 ([2]; Canis lupus familiaris, dog, id administration, histamine-stimulated, acid output 2 h after dosing)	Inhibition of acid secretion ([2]; Dog 1, 1.5 μmol/kg)	Inhibition of acid secretion ([2]; Dog 2, 1.5 μmol/kg)
2 h		COc1ccnc(C[S+]([O-])c2nc3c(F)cccc3n2COC(=O)OCc2ccccc2)c1 (stereo not drawn) [Example 1, 4-fluoro-2-[[(4-methoxy-2-pyridinyl)methyl]sulfinyl]-1H-benzimidazole-1-ylmethyl benzyl carbonate]			
3 h	16 h	CCOC(=O)OCn1c([S+]([O-])Cc2cc(OC)ccn2)nc2c(F)cccc21 (stereo not drawn) [Example 2, 4-fluoro-2-[[(4-methoxy-2-pyridinyl)methyl]sulfinyl] -1H-benzimidazole-1-ylmethyl ethyl carbonate]	1.3 µmol/kg	55%	no effect
